The target of assay [1] is T1, isolated kinase domain of the human FLT3 receptor (a.a. 571-993) (Homo sapiens, UniProt P36888).
T1 construct: human FLT3 receptor (a.a. 571-993)
T1 sequence (P36888 571-993): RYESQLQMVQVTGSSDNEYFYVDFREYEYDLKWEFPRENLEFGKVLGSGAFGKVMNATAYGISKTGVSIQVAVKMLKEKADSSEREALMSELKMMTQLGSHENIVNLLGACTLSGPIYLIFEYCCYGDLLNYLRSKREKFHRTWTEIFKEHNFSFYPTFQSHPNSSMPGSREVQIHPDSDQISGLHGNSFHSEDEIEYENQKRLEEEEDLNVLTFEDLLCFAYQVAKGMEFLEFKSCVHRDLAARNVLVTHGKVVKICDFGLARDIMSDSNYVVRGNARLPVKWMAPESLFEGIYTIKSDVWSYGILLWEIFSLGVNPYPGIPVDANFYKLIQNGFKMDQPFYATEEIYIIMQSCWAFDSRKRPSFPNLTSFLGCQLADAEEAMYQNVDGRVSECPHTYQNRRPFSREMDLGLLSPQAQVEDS
Briefly: FLT3 fluorescence polarization kinase assay. The class given is biochemical. Conditions: 150 uM ATP; uncertainty ±10%.

In assay [2] the test system is MV4-11 cells. Briefly: Inhibition of MV4-11 cell proliferation (CellTiterGlo, 72 h). The assay is classed as cell-based. Conditions: Homo sapiens; 72 h growth inhibition; uncertainty ±20%. In general terms: Cellular ATP, detected with luciferase, serves as a proxy for viable cell number.

Bounds are passed on as bounds.

Regarding `O=C1CCCN1CCCOc1ccc2c(C3CCN(C(=O)Nc4ccc(N5CCOCC5)cc4)CC3)ncnc2c1` [Example 68, 4-{7-[3-(2-Oxo-pyrrolidin-1-yl)-propoxy]-quinazolin-4-yl}-piperidine-1-carboxylic acid (4-morpholin-4-yl-phenyl)-amide], the concentration for half-maximal inhibition (IC50) (commonly the point on the concentration scale where inhibition reaches its midpoint) stood at 37 nM in assay [1] and 30 nM in assay [2].
Turning to `CC(C)c1ccc(NC(=O)N2CCC(c3ncnc4ccccc34)CC2)cc1` [Example 7, 4-Quinazolin-4-yl-piperidine-1-carboxylic acid (4-isopropyl-phenyl)-amide], the IC50 in assay [1] turned out to be 55 nM; in assay [2], 232 nM.
Regarding `CN1CCC(COc2ccc3c(C4CCN(C(=O)Nc5ccc(N6CCOCC6)cc5)CC4)ncnc3c2)CC1` [Example 94, 4-[7-(1-Methyl-piperidin-4-ylmethoxy)-quinazolin-4-yl]-piperidine-1-carboxylic acid (4-morpholin-4-yl-phenyl)-amide], the values for the IC50 in assay [1] and in assay [2] were 1 nM and 60 nM, respectively.
Consider `O=C(Nc1ccc(N2CCOCC2)cc1)N1CCC(c2ncnc3cc(OCCCO)ccc23)CC1` [Example 77, 4-[7-(3-Hydroxy-propoxy)-quinazolin-4-yl]-piperidine-1-carboxylic acid (4-morpholin-4-yl-phenyl)-amide], for which the IC50 came out at 103 nM in assay [1] and 139 nM in assay [2].
On to `COc1cc2ncnc(C3CCN(C(=O)Nc4ccc(C(C)C)cc4)CC3)c2cc1OC` [Example 4, 4-(6,7-Dimethoxy-quinazolin-4-yl)-piperidine-1-carboxylic acid (4-isopropyl-phenyl)-amide], for which the IC50 in assay [1] was determined as 9 nM; in assay [2] it was 86 nM.
The corresponding values for `CC(C)Oc1ccc(NC(=O)N2CCC(c3ncnc4cc(NCCCN5CCN(C)CC5)ccc34)CC2)cc1` [Example 102, 4-{7-[3-(4-Methyl-piperazin-1-yl)-propylamino]-quinazolin-4-yl}-piperidine-1-carboxylic acid (4-isopropoxy-phenyl)-amide] are 5 nM and 18 nM.
Take `COc1cc2ncnc(C3CCN(C(=O)Nc4ccc(C5=CCNCC5)cc4)CC3)c2cc1OC` [Example 62, 4-(6,7-Dimethoxy-quinazolin-4-yl)-piperidine-1-carboxylic acid [4-(1,2,3,6-tetrahydro-pyridin-4-yl)-phenyl]-amide]: the figures for the IC50 in assay [1] and in assay [2] were > 10000 nM and 7500 nM, respectively.
For `COc1cc2ncnc(C3CCN(C(=O)Nc4ccc(C(C)O)cc4)CC3)c2cc1OC` (stereo not drawn) [Example 55, 4-(6,7-Dimethoxy-quinazolin-4-yl)-piperidine-1-carboxylic acid [4-(1-hydroxy-ethyl)-phenyl]-amide], the IC50 in assay [1] is 1100 nM; in assay [2] it was 2600 nM.
Take `CN1CCCN(CCCOc2ccc3c(C4CCN(C(=O)Nc5ccc(N6CCOCC6)cc5)CC4)ncnc3c2)CC1` [Example 125, 4-{7-[3-(4-Methyl-[1,4]diazepan-1-yl)-propoxy]-quinazolin-4-yl}-piperidine-1-carboxylic acid (4-morpholin-4-yl-phenyl)-amide]: the values for the IC50 in assay [1] and in assay [2] were 6 nM and 45 nM, respectively.
Taken in the same sequence, the figures for `CS(=O)(=O)NCCCOc1ccc2c(C3CCN(C(=O)Nc4ccc(N5CCCC5)nc4)CC3)ncnc2c1` [Example 86, 4-[7-(3-Methanesulfonylamino-propoxy)-quinazolin-4-yl]-piperidine-1-carboxylic acid (6-pyrrolidin-1-yl-pyridin-3-yl)-amide] were 1 nM and 17 nM.
Regarding `COc1cc2ncnc(C3CCN(C(=O)Nc4ccc(-c5cncnc5)cc4)CC3)c2cc1OC` [Example 58, 4-(6,7-Dimethoxy-quinazolin-4-yl)-piperidine-1-carboxylic acid (4-pyrimidin-5-yl-phenyl)-amide], the IC50 in assay [1] and in assay [2] was 2000 nM in each case.
With `O=C(Nc1ccc(N2CCOCC2)cc1)N1CCC(c2ncnc3cc(OCCCN4CCN(CCO)CC4)ccc23)CC1` [Example 116, 4-(7-{3-[4-(2-Hydroxy-ethyl)-piperazin-1-yl]-propoxy}-quinazolin-4-yl)-piperidine-1-carboxylic acid (4-morpholin-4-yl-phenyl)-amide], the figures for the IC50 in assay [1] and in assay [2] were 14 nM and 139 nM, respectively.
Consider `CN1CCN(CCCOc2ccc3c(C4CCN(C(=O)Nc5ccc(N6CCOCC6)c(F)c5)CC4)ncnc3c2)CC1` [Example 81, 4-{7-[3-(4-Methyl-piperazin-1-yl)-propoxy]-quinazolin-4-yl}-piperidine-1-carboxylic acid (3-fluoro-4-morpholin-4-yl-phenyl)-amide], for which the IC50 in assay [1] is 7 nM; in assay [2], 70 nM.
Turning to `CN1CCN(CCCOc2ccc3c(C4CCN(C(=O)Nc5ccc(N6CCCC6)nc5)CC4)ncnc3c2)CC1` [Example 104, 4-{7-[3-(4-Methyl-piperazin-1-yl)-propoxy]-quinazolin-4-yl}-piperidine-1-carboxylic acid (6-pyrrolidin-1-yl-pyridin-3-yl)-amide], the IC50 in assay [1] was 11 nM; in assay [2] it was 12 nM.
Regarding `CN1CCN(CCCOc2ccc3c(C4CCN(C(=O)Nc5ccc(N6CCOCC6)nc5)CC4)ncnc3c2)CC1` [Example 80, 4-{7-[3-(4-Methyl-piperazin-1-yl)-propoxy]-quinazolin-4-yl}-piperidine-1-carboxylic acid (6-morpholin-4-yl-pyridin-3-yl)-amide], the figures for the IC50 in assay [1] and in assay [2] were 4 nM and 52 nM, respectively.
Take `COc1cc2ncnc(C3CCN(C(=O)Nc4ccc(Oc5ccccc5)cc4)CC3)c2cc1OC` [Example 47, 4-(6,7-Dimethoxy-quinazolin-4-yl)-piperidine-1-carboxylic acid (4-phenoxy-phenyl)-amide]: the IC50 in assay [1] came out at 35 nM; in assay [2], 122 nM.
In the case of `CN1CCC(COc2ccc3c(C4CCN(C(=O)Nc5ccc(OC6CCC6)nc5)CC4)ncnc3c2)CC1` [Example 107, 4-[7-(1-Methyl-piperidin-4-ylmethoxy)-quinazolin-4-yl]-piperidine-1-carboxylic acid (6-cyclobutoxy-pyridin-3-yl)-amide], the results for the IC50 in assay [1] and in assay [2] were 1 nM and 23 nM, respectively.
In the case of `CN(C)C(=O)N1CCN(CCCOc2ccc3c(C4CCN(C(=O)Nc5ccc(N6CCOCC6)cc5)CC4)ncnc3c2)CC1` [Example 120, 4-(3-{4-[1-(4-Morpholin-4-yl-phenylcarbamoyl)-piperidin-4-yl]-quinazolin-7-yloxy}-propyl)-piperazine-1-carboxylic acid dimethylamide], the IC50 in assay [1] was 36 nM; in assay [2] it was 220 nM.
Taken in the same sequence, the figures for `COc1cc2ncnc(C3CCN(C(=O)Nc4ccc(-c5ccco5)cc4)CC3)c2cc1OC` [Example 59, 4-(6,7-Dimethoxy-quinazolin-4-yl)-piperidine-1-carboxylic acid (4-furan-2-yl-phenyl)-amide] were 220 nM and 269 nM.
Consider `COCCCOc1ccc2c(C3CCN(C(=O)Nc4ccc(N5CCOCC5)cc4)CC3)ncnc2c1` [Example 78, 4-[7-(3-Methoxy-propoxy)-quinazolin-4-yl]-piperidine-1-carboxylic acid (4-morpholin-4-yl-phenyl)-amide], for which the results for the IC50 in assay [1] and in assay [2] were 225 nM and 81 nM, respectively.
As to `CC(C)Oc1ccc(NC(=O)N2CCC(c3ncnc4ccc(I)cc34)CC2)cc1` [Example 11, 4-(6-Iodo-quinazolin-4-yl)-piperidine-1-carboxylic acid (4-isopropoxy-phenyl)-amide], the figures for the IC50 in assay [1] and in assay [2] were 46 nM and 460 nM, respectively.
As for `CC(C)Oc1ccc(NC(=O)N2CCC(c3ncnc4ccc(C#CCN5CCCCC5)cc34)CC2)cc1` [Example 14, 4-[6-(3-Piperidin-1-yl-prop-1-ynyl)-quinazolin-4-yl]-piperidine-1-carboxylic acid (4-isopropoxy-phenyl)-amide], the IC50 in assay [1] turned out to be 53 nM; in assay [2], 23 nM.
Take `COc1cc2ncnc(C3CCN(C(=O)Nc4ccc(C(C)(C)C)cc4)CC3)c2cc1OC` [Example 53, 4-(6,7-Dimethoxy-quinazolin-4-yl)-piperidine-1-carboxylic acid (4-tert-butyl-phenyl)-amide]: the half-inhibitory concentration (IC50) turned out to be 15 nM in assay [1] and 48 nM in assay [2].
On to `O=C1CCCN1CCOc1ccc2c(C3CCN(C(=O)Nc4ccc(N5CCOCC5)cc4)CC3)ncnc2c1` [Example 85, 4-{7-[2-(2-Oxo-pyrrolidin-1-yl)-ethoxy]-quinazolin-4-yl}-piperidine-1-carboxylic acid (4-morpholin-4-yl-phenyl)-amide], for which the half-maximal inhibitory concentration (IC50) stood at 27 nM in assay [1] and 58 nM in assay [2].
As for `CN1CCC(COc2ccc3c(C4CCN(C(=O)Nc5ccc(N6CCCC6)nc5)CC4)ncnc3c2)CC1` [Example 99, 4-[7-(1-Methyl-piperidin-4-ylmethoxy)-quinazolin-4-yl]-piperidine-1-carboxylic acid (6-pyrrolidin-1-yl-pyridin-3-yl)-amide], the IC50 is 1 nM in assay [1] and 58 nM in assay [2].
In the case of `CC(C)Oc1ccc(NC(=O)N2CCC(c3ncnc4cc(OCCN5CCOC5=O)ccc34)CC2)cc1` [Example 79, 4-{7-[2-(2-Oxo-oxazolidin-3-yl)-ethoxy]-quinazolin-4-yl}-piperidine-1-carboxylic acid (4-isopropoxy-phenyl)-amide], the figures for the IC50 in assay [1] and in assay [2] were 58 nM and 44 nM, respectively.
As to `CCOc1ccc(NC(=O)N2CCC(c3ncnc4cc(OC)c(OC)cc34)CC2)cc1` [Example 44, 4-(6,7-Dimethoxy-quinazolin-4-yl)-piperidine-1-carboxylic acid (4-ethoxy-phenyl)-amide], the IC50 turned out to be 150 nM in assay [1] and 725 nM in assay [2].

The values above are taken from patent publication US20070004660A1, “Synergistic Modulation of Flt3 Kinase Using Alkylquinolines and Alkylquinazolines” (priority 2005, published 2007).
